According to patent US11724998B2, “PXR agonists and uses thereof for gut barrier dysfunction treatment and prevention” (Albert Einstein College of Medicine, priority 2017, dated 2023):

Experiments:
[1] = biological target: T1, AhR (Homo sapiens, UniProt P35869); experiment: AhR activation, AZ-AHR (stably co-transfected HepG2) reporter cells; type: cell-based; parameters: endogenous in cells; host or cells: AZ-AHR (HepG2); settings: to a much lesser extent than FKK 2 and 9; FIG. 6B
T1 sequence (P35869 11-848): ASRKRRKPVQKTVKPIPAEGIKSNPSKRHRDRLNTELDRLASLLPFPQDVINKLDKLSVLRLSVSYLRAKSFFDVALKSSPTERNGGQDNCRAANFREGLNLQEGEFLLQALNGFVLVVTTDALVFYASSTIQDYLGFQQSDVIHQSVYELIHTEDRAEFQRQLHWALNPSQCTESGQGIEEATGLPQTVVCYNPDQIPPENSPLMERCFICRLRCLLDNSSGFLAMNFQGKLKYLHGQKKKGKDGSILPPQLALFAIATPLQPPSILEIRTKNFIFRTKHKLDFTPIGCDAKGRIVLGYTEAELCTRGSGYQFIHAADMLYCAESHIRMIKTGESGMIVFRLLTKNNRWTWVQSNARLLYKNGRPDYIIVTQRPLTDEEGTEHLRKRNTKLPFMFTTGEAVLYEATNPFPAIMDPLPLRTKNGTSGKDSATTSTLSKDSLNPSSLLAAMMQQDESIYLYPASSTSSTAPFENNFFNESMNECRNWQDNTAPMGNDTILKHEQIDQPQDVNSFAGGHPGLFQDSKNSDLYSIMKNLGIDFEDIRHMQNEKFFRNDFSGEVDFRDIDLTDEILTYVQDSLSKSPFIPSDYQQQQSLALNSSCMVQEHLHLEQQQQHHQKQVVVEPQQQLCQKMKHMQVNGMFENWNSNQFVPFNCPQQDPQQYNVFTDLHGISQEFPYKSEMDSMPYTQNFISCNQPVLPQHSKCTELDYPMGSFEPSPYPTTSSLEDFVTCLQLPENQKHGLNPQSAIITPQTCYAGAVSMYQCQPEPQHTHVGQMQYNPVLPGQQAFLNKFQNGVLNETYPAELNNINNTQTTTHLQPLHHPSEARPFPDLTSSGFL
Experimental: (§1) FIG. 6A-6E. Activation and inhibition studies with different FKK compounds. (A) PXR activation, LS180 cells (upper), and PXR inhibition, LS180 cells, co-incubation with RIF (lower). (B) AhR activation, AZ-AHR cells (upper), and AhR inhibition, AZ-AHR cells, co-incubation with TCDD (lower). (C) GR activation, AZ-GR cells (upper), and VDR activation, IZ-VDRE cells (lower). (D) TR activation, PZ-GR cells (upper), and AR activation, AIZ-AR cells (lower). (E) Displacement of radiolabeled 9-cis-retinoic acid (RA) by FKK compounds.
(§2) All the synthesized compounds and intermediates were tested for their potential to activate PXR and/or AhR via luciferase assays. The PXR activation assays were performed by co-transfecting full-length expressing human PXR plasmid (91) and p3A4 luciferase reporter (92) in LS180 or Caco-2 cells. AhR activation conducted using stably co-transfected HepG2 reporter cells as previously described (93). […] With the exception of FKK6, there was no significant inhibition of TCDD-induced AhR activation. […] Independent verification of AhR activity of randomly selected compounds—FKK 5, 6 and 9—was performed in a separate laboratory (GHP). Nuclear receptor selectivity was assessed for FKK compounds for GR, ADR, TR and AR using cell-based luciferase assays previously described (93-102). There was no observed biologically significant (>2-fold) induction of nuclear receptor activity (FIG. 6C). RXR ligand displacement is only significant for FKK1 and FKK8 (FIG. 6D).

[2] = system: RXR; experiment: RXR ligand displacement (radiolabeled 9-cis-retinoic acid); type: binding; settings: displacement of radiolabeled 9-cis-retinoic acid
Experimental: as §1
as §2, with “There was no observed biologically significant (>2-fold) induction of nuclear receptor activity (FIG. 6C). RXR ligand displacement is only significant for FKK1 and FKK8 (FIG. 6D).” left out

[3] = biological target: T2, PXR (Homo sapiens, UniProt O75469); experiment: PXR inhibition, LS180 cells, co-incubation with RIF; type: cell-based; parameters: co-transfecting full-length expressing human PXR plasmid (91) and p3A4 luciferase reporter (92) in LS180 or Caco-2 cells; expressed in transfected cells; host or cells: LS180; settings: FIG. 6A
T2 sequence (O75469 1-434): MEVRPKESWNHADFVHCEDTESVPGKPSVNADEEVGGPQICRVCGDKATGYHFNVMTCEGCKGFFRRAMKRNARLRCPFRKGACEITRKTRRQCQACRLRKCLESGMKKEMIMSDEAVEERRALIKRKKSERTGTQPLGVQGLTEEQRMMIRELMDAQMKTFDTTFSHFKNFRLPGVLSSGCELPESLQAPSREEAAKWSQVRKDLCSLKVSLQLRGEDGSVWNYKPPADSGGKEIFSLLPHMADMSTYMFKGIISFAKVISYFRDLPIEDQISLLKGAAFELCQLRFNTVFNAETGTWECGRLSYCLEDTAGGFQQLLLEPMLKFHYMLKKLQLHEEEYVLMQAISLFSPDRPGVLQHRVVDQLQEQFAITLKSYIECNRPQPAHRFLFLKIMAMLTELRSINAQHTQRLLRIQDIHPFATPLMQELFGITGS
Experimental: as §1
as §2, with “There was no observed biologically significant (>2-fold) induction of nuclear receptor activity (FIG. 6C). RXR ligand displacement is only significant for FKK1 and FKK8 (FIG. 6D).” left out

[4] = system: PXR target genes (CYP3A4, MDR1); settings: human

O=S(=O)(c1ccccc1)n1c(C(O)Cc2cc3ccccc3[nH]2)cc2ccccc21 (stereo not shown) [FKK8]
AhR activation profile [1]: variable degrees of dose-dependent AhR activation
RXR ligand displacement [2]: significant
rifampicin-dependent PXR antagonism (inhibition) [3]: rifampicin-dependent PXR antagonism (inhibition)
CYP3A4 mRNA induction [4]: 1.5 fold
